Assays:
ADORA1 = biological target: T1, ADORA1 (Mus musculus, UniProt Q60612); assay: Fura-2 calcium imaging of NGF-exposed, adenosine-treated DRG neurons with ADORA1 inhibitor; format: cell-based; conditions: NGF-exposed DRG treated with adenosine 5 μM plus DPCPX 100 nM; capsaicin 100 nM; vehicle DMSO
T1 construct: endogenous in cells; host or cells: primary dissociated mouse L3-L4 DRG neurons
T1 sequence (Q60612 1-326): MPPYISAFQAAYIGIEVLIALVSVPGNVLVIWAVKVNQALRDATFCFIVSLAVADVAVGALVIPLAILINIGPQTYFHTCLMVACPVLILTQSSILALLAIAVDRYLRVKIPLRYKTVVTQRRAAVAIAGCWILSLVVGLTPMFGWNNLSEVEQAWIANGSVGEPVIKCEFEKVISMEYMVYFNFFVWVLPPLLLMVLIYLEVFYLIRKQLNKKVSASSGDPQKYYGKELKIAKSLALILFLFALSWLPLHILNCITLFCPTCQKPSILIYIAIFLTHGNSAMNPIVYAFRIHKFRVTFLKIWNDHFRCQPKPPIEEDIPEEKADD
Text: DRG were isolated from mice using a modified version of the previously described protocol (Perner C, et al. (2021) STAR Protoc. 2:100333). Briefly, mice were euthanized and dosed in 70% ethanol to prevent fur contamination. Mice were positioned prone, and an incision was made along the spine from the neck to the base of the tail. Under a dissecting microscope, the surrounding soft tissue of the spinal column was removed from the dorsal side by Friedman-Pearson Rongeurs (Fine Science Tools, Foster City, CA, Cat #16021-14) from the mid thoracic region to the lumbosacral joint. The vertebral bone surrounding the DRG was gently crushed and removed with rongeurs exposing the spinal cord. The DRG were carefully extracted near the foramen between the vertebral levels. L3 and L4 DRG were collected for analyses. […] For cell culture experiments, collected DRG were digested in digestion solution comprised of collagenase type II (Worthington, Lakewood, NJ, Cat #LS004176) and dispase (1.5 mg/mL each) dissolved in DMEM/F12. DRG were agitated in a digestion solution on an orbital shaker at 60 rpm and 37° C. for 20 minutes and repeated thrice with fresh digestion solution. […]

ADORA2B = biological target: T2, ADORA2B (Mus musculus, UniProt Q60614); assay: RT-qPCR of osteogenic genes in BM-MSCs with ADORA2B inhibitor; format: cell-based; conditions: BM-MSCs with adenosine 30 μg/mL plus PSB 603, 14 days, vs vehicle DMSO
T2 construct: endogenous in cells; host or cells: primary mouse bone marrow mesenchymal stromal cells (BM-MSCs), passage 1-2
T2 sequence (Q60614 1-332): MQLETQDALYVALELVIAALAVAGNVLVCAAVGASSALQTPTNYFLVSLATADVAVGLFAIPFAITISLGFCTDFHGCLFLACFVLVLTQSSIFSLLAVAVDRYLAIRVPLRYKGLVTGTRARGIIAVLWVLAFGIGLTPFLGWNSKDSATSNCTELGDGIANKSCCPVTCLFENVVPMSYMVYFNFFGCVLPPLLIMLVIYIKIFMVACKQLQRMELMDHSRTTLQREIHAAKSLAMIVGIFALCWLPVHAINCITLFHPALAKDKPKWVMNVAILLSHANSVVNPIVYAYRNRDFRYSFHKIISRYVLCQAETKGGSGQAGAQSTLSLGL
Method: MSCs were isolated as previously described with some modifications (Shih Y B, et al. (2019) Sci Adv. 5:eaax1387). Briefly, the femurs, tibiae, vertebrae of mice were harvested, crushed with pestle and mortar in harvest buffer (1% v/v FBS in PBS) to release bone marrow (BM) tissue, filtered through a 40-μm cell strainer, and centrifuged at 200 rcf. Cells were seeded in a 24-well plate at a cell density of 1 million cells/cm^2 in growth media (GM) containing α-MEM, FBS (10% v/v, ThermoFisher, Cat #16000044), penicillin/streptomycin (10000 U/mL; 1% v/v) and cultured in humidified incubator (37° C., 5% CO2). The medium was replaced after 3 days and further cultured for 6 days before passage. […]
Cells, DRG, or bone/marrow tissues were analyzed for gene expression by quantitative real-time polymerase chain reaction (RT-qPCR). […] Quantitative PCR was performed with iTaq Universal SYBR green reagent (Bio-Rad, Cat #1725124) with denaturation at 95° C. for 30 sec for one cycle, and amplification (denaturation+annealing/extension) at 95° C. for 5 sec and 60° C. for 30 sec for 40 cycles on a polymerase chain reaction (PCR) cycler (Bio-Rad, CFX96 Touch). […]
The expression level of each target gene was normalized to the housekeeping gene and to their respective controls and presented as fold change expressed as 2^−ΔΔCt values. […]

dissociated DRG neurons [1] = assay: Fura-2 calcium imaging of dissociated DRG neurons stimulated with capsaicin; format: cell-based, mouse; conditions: NGF 200 ng/mL 24 hr vs no NGF; capsaicin 100 nM
Text: DRG were isolated from mice using a modified version of the previously described protocol (Perner C, et al. (2021) STAR Protoc. 2:100333). Briefly, mice were euthanized and dosed in 70% ethanol to prevent fur contamination. Mice were positioned prone, and an incision was made along the spine from the neck to the base of the tail. Under a dissecting microscope, the surrounding soft tissue of the spinal column was removed from the dorsal side by Friedman-Pearson Rongeurs (Fine Science Tools, Foster City, CA, Cat #16021-14) from the mid thoracic region to the lumbosacral joint. The vertebral bone surrounding the DRG was gently crushed and removed with rongeurs exposing the spinal cord. The DRG were carefully extracted near the foramen between the vertebral levels. L3 and L4 DRG were collected for analyses. Dissected DRG were placed directly into ice-cold DMEM-F12 medium (ThermoFisher, Cat #11320033) for in vitro culture, Trizol (ThermoFisher, Cat #15596018) for PCR analyses, or 4% PFA for histology. For cell culture experiments, collected DRG were digested in digestion solution comprised of collagenase type II (Worthington, Lakewood, NJ, Cat #LS004176) and dispase (1.5 mg/mL each) dissolved in DMEM/F12. DRG were agitated in a digestion solution on an orbital shaker at 60 rpm and 37° C. for 20 minutes and repeated thrice with fresh digestion solution. Next, the digestion solution was replaced with trypsin-EDTA (0.025%) in DMEM/F12 and incubated for an additional 15 min to disrupt the remaining cell-to-cell adhesions. The solution was then replaced with DMEM/F12 and FBS (1:3) to neutralize trypsin. DRG were triturated to create a cell suspension and gently layered onto 15% bovine serum albumin (BSA) solution without mixing and centrifuged for 6 min at 280 g with minimal acceleration and no deceleration to separate non-neuronal cells and debris (Owen D E, et al. (2012) Methods Mol Biol. 846:179-187). […]
Intracellular cytosolic Ca^2+ was evaluated by Fura-2 loaded DRG neurons (Khomula E V, et al. (2019) J Neurosci. 39:7061-7073). […]

dissociated DRG neurons [2] = assay: FluoVolt membrane potential imaging of dissociated DRG neurons; format: cell-based, mouse; conditions: NGF exposure 1 day; capsaicin stimulation
Text: DRG were isolated from mice using a modified version of the previously described protocol (Perner C, et al. (2021) STAR Protoc. 2:100333). Briefly, mice were euthanized and dosed in 70% ethanol to prevent fur contamination. Mice were positioned prone, and an incision was made along the spine from the neck to the base of the tail. Under a dissecting microscope, the surrounding soft tissue of the spinal column was removed from the dorsal side by Friedman-Pearson Rongeurs (Fine Science Tools, Foster City, CA, Cat #16021-14) from the mid thoracic region to the lumbosacral joint. The vertebral bone surrounding the DRG was gently crushed and removed with rongeurs exposing the spinal cord. The DRG were carefully extracted near the foramen between the vertebral levels. L3 and L4 DRG were collected for analyses. Dissected DRG were placed directly into ice-cold DMEM-F12 medium (ThermoFisher, Cat #11320033) for in vitro culture, Trizol (ThermoFisher, Cat #15596018) for PCR analyses, or 4% PFA for histology. For cell culture experiments, collected DRG were digested in digestion solution comprised of collagenase type II (Worthington, Lakewood, NJ, Cat #LS004176) and dispase (1.5 mg/mL each) dissolved in DMEM/F12. […]
DRG neuron potential changes were evaluated with FluoVolt, a voltage sensitive indicator dye (ThermoFisher, Cat #F10488). […]

TRPV1 = assay: Immunofluorescence staining of TRPV1 in cultured DRG neurons; format: cell-based, mouse; conditions: NGF 200 ng/mL, 1 day incubation, DRG neurons from unfractured mice
Method: To culture DRG neurons, culture media composed of Neurobasal-A medium (ThermoFisher, Cat #10888022), 2% B27 supplement (ThermoFisher, Cat #17504044), 1% glutamax (ThermoFisher, Cat #35050061), and penicillin/streptomycin (10000 U/mL, 1% v/v, ThermoFisher, Cat #15140122) was used. Cells were treated with or without NGF (200 ng/mL) for 24 hr prior to immunofluorescence imaging. Cells were exposed to NGF (200 ng/mL) for 24 hr (long-term) for calcium and FluoVolt imaging. Cells were cultured on custom-made glass surface with silicone wells. Briefly, cover slides (#1 thickness) were cleaned by agitating in 0.5 M NaOH for 30 minutes followed by subsequent rinsing in dH2O followed by 100% ethanol and air-dried. Wells were produced in cured polydimethylsiloxane (PDMS, Sylgard 184, Ellsworth Adhesives, Germantown, WI) with a 8-mm biopsy punch and bonding to the cover slides. […]
Sections were heated for antigen retrieval in citrate buffer (MilliporeSigma, Cat #C9999) for 20 min, permeabilized in 0.1% Triton X-100 in PBS for 10 min, followed by blocking for 1 hr in blocking solution comprised of 3% BSA, 0.26 M glycine, 5% normal donkey serum in Tris buffered saline (TBS) at room temperature. […] Fluorescence intensity was quantified by ImageJ software and presented in arbitrary units.

CCCn1c(=O)c2[nH]c(C3CCCC3)nc2n(CCC)c1=O [DPCPX, 8-Cyclopentyl-1,3-dipropylxanthine]
average and peak fluorescence intensity vs vehicle control lacking DPCPX (ADORA1): increase

CCCn1c(=O)[nH]c2nc(-c3ccc(S(=O)(=O)N4CCN(c5ccc(Cl)cc5)CC4)cc3)[nH]c2c1=O [PSB 603]
adenosine mediated upregulation of osteogenic markers (Runx2, Sp7, Ibsp) (ADORA2B): attenuated

NGF: nerve growth factor, used as model molecule for in vitro sensitization of DRG neurons
functional responses of DRG neurons to capsaicin (Fura-2 intensity) (dissociated DRG neurons [1]): increased
membrane potential of DRG neurons (FluoVolt) (dissociated DRG neurons [2]): increased
TRPV1 receptor expression in TUBB3-positive neurons (TRPV1): significantly increased

From patent US20250152616A1, “COMPOSITIONS FOR AND METHODS OF TREATING, PREVENTING, AND/OR MITIGATING PAIN” (Duke University, priority 2022, published 2025)
